# Entries after “also recorded” stand apart in the source; their conditions may differ.
# Columns and labels:
# TRPV4 = molecular target: T1, TRPV4 (Mus musculus, UniProt Q9EPK8); experiment: GSK101-evoked Ca++ transient in 1° MK (fura-2); type: cell-based; details: 5 nM GSK101; 20 μM GSK205
# T1 construct: Primary mouse keratinocytes were derived from back skin of newborn mice; endogenous in cells; host or cells: primary mouse epidermal keratinocytes (1° MK), wild type
# Protocol: Ca++ imaging of mouse 1° MK in response to chemical activation of TRPV4 was conducted after loading with 2 μM fura2-AM, following a ratiometric Ca2+ imaging protocol with 340/380 nm […] for dual excitation. Ratios of emissions were acquired at 0.5 Hz. ΔR/R0 was determined as the fraction of the increase of a given ratio over baseline ratio, divided by baseline ratio. For stimulation of cells with UVB, where fura-2 was not suitable because of the proximity of stimulation with 340/380 nm and 295 nm, 2 μM fluo4-AM was used instead. Ca++ imaging was carried out at 488 nm excitation, acquisition of emissions at 0.5 Hz, expressed as ΔF/F0. In the custom-built UV optical system, UV LEDs were capped with a ball lens, a transparent optical window in the shape of a hemispherical lens (FIG. 2B). The LED output optical beam focused at 15-20 mm from the lens, with a spot diameter of approximately 1.5˜2.0 mm (FIG. 2C). […] The thermal equilibration stage was set for physiological temperature. We confirmed the non-thermal nature of UVB stimulation using the customized 295 nm LED device in a dedicated experiment (FIG. 2D), thus confirming the specific modality of stimulation as UVB.
# We obtained corroborating findings by chemically activating TRPV4 with GSK101, which can directly stimulate TRPV4 in WT 1° MK. […]
# mice = experiment: UVB-evoked nocifensive behavior after topical GSK205 (Hargreaves' test, von Frey hair); type: in vivo, mouse
# Protocol: (§1) A viscous solution of 68% EtOH/5% glycerol plus 1 mM or 5 mM GSK205 (none for control) was applied to hindpaws by rubbing in 20 μL, applied at time-points 1 hour and again 10 min before UV exposure.
# Behavioral tests were performed to evaluate the decrease in withdrawal thresholds in response to mechanical or thermal stimuli applied to hind paws. These withdrawal thresholds were ascertained before and after UVB exposure. Mice were confined by plexi-glass enclosures on top of 25×26 cm Bio Rad Gel Doc 2000 UV transilluminator (302 nm), and otherwise allowed to openly explore this environment. UV-exposure lasted for 5 minutes with an exposure of 600 mJ/cm^2.
# Hindpaw mechanical withdrawal thresholds were determined by the automated von Frey hair method, using a 0.5 mm diameter stainless steel filament, part of an automated plantar touch stimulator (Ugo Basile, Modena, Italy). Relevant detail included pre-test acclimatization in a quiet room for 30 min, conducting the test at the same time of day and blinded observers. The stimulus was delivered to the hindpaw, automatically discontinued upon withdrawal, and its intensity recorded automatically. 6-8 trials per animal were conducted, with equal exposure of both hindpaws, leading to an average withdrawal threshold. Results are reported as Δ-threshold, which was calculated by subtracting post-treatment from pre-treatment measurements, expressed as % or relative to 1.0.
# Hindpaw thermal (hot) withdrawal thresholds were determined by the well-established Hargreaves' method, using an infra-red thermal stimulation device that delivers the stimulus from underneath the hindpaw combined with automatic shut-off upon withdrawal (Ugo Basile). Stimulation and measurements were conducted as described for von Frey hair testing. A cutoff of 20 sec was set to prevent tissue damage.
# In view of the observed impact of epidermal-specific TRPV4-deficiency on mouse nociception in response to UVB, and because of the unambiguous effects of selective TRPV4 blockers on 1° MK in vitro, we tested the possible clinical relevance of our findings. For this purpose, we topically applied TRPV4 inhibitor GSK205 to WT mouse skin and subsequently exposed animals to UVB (FIG. 12A).
# mouse paw-pad skin = experiment: UVB-photodermatitis of mouse paw-pad skin after topical treatment (immunolabeling, histopathology, Edn1 qPCR); type: in vivo
# Protocol: as §1
# Routine procedures were followed as described previously (Chen et al., 2009). Mice were perfused transcardially with 30 mL PBS, followed by 30 mL 4% paraformaldehyde. Tissues, including the L5 DRGs (bilateral), and footpad preparations, were dissected and post-fixed in 4% paraformaldehyde. Tissue blocks were further cryoprotected in 30% sucrose in PBS for 24-48 hours. For mouse TRPV4, keratin-specific antibodies, phospho-ERK, IL-6, IL-1β, CXCL5 and caspase-1, tissue was prepared as frozen blocks and subsequently sectioned on a cryostat. For CD68, CD15 (neutrophil elastase) and CD3, mouse skin was prepared by 2% PFA perfusion. Footpad and DRG sections (both at 6-10 μm) were thaw-mounted, blocked with 5% normal goat serum (NGS; Jackson), then incubated overnight at 4° C. with the following primary antibodies: rabbit anti-TRPV4 (1:300; Abcam), mouse anti-keratin 14 (1:300; Abcam against C-terminal peptide beyond residue 850); rabbit anti-keratin 14 (1:1000; Fuchs-Lab), rabbit anti-phosph-ERK1/2 (1:500; Cell signaling technologies), goat anti-IL-1β (1:800; Abcam), goat anti-IL-6 (1:200; Santa Cruz Biotechnology Inc); rabbit anti-caspase-1 (1:200; Biovision Research Products, CA); goat anti-mouse LIX/CXCL5 (1:200; R&D Systems Inc), anti-CD68, anti-[…], and anti-CD3 (AbDSerotec). Immunodetection was accomplished with appropriate fluorescently-labeled secondary antibodies (AlexaFluor595, AlexaFluor488-conjugated antibodies at 1:600; Invitrogen; for CD15 biotinylated secondary antibody from donkey, 1:400 followed by rhodamine-streptavidine 1:250), or with peroxidase-linked detection reagents (for CD68) for 2 hours at room-temperature. Sections were rinsed, mounted, and cover-slipped with fluoromount (Sigma). Digital micrographs were obtained using a BX61 Olympus upright microscope, also with a Zeiss LSM510 confocal, both equipped with high-res CCD camera, and acquired with constant exposure settings, using ISEE or Zeiss Zen software. Morphometric analysis was conducted using ImageJ freeware (v1.45) with tailored regions-of-interest that spared the nuclear compartment. ImageJ was also used for determination of DRG surface area.
# In view of TRPV4-dependence of ET/Edn1 expression in skin, we measured Edn1 mRNA abundance in GSK205 vs. vehicle treated paw-pad skin. […] In striking contrast, and in keeping with histopathology, Edn1 mRNA-expression in GSK205 topically-treated skin was found unchanged.
# (§2) We also tested the response of down-stream UVB effector mechanisms to GSK205 treatment in vivo.
# IL-1β secretion by 1° MK = experiment: IL-1β secreted by cultured keratinocytes after UVB exposure (ELISA); type: cell-based, mouse; details: 5 μM GSK205
# Protocol: Before UV irradiation, culture media was replaced with PBS. The cells were then irradiated at a dose of 50 mJ/cm^2 with UVB. 24 hours later, supernatants were assayed using IL-1β ELISA (R&D Systems, Minneapolis, Minn.).
# as §2
# T1 sequence (Q9EPK8 whole entry): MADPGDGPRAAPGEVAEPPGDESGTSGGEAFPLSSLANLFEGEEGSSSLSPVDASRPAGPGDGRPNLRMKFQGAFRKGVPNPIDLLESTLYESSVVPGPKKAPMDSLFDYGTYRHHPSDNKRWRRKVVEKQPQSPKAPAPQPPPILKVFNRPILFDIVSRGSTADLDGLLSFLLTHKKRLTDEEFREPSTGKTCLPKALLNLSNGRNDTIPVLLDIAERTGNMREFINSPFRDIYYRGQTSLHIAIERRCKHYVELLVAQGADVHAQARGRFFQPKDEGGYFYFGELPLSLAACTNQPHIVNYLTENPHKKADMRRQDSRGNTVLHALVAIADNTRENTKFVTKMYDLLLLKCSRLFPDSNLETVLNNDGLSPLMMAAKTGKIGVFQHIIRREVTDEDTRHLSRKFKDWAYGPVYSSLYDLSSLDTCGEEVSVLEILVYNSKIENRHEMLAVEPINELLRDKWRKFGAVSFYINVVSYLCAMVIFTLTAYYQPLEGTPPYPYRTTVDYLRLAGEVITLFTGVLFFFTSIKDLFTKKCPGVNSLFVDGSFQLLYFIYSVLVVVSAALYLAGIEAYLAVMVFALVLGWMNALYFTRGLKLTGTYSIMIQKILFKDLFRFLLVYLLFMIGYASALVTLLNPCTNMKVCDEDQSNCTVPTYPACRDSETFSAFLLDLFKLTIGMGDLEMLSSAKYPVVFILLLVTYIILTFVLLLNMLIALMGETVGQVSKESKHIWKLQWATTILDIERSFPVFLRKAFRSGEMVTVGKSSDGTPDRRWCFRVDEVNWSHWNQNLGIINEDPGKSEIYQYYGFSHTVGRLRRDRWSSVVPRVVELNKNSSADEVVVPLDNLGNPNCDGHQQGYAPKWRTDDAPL
compound,measurement,setting,value
CN(CCc1ccc(Nc2nc(-c3cccnc3)cs2)cc1)Cc1ccccc1 [GSK205],GSK101-evoked Ca++ transient,TRPV4,eliminated; also recorded: completely blocked
same,delay in thermal sensitivity after UVB,"mice; topical 1 mM GSK205, Hargreaves' test",~24 h
same,sensitivity to von Frey hair mechanical stimulation after UVB,mice; topical 5 mM GSK205,significantly reduced sensitivity
same,thermally-evoked nocifensive behavior (thermal allodynia) after UVB,"mice; topical 5 mM GSK205, Hargreaves' test, 48 hours post-UVB",sustained attenuation; also recorded: significant attenuation of thermal allodynia
same,nocifensive behavior after UVB in Trpv4−/− mice (off-target effects),"mice; topical 5 mM GSK205 vs. vehicle, Trpv4−/− mice",did not show any inter-group differences; also recorded: lack of off-target effects
same,histopathology of UVB-photodermatitis,mouse paw-pad skin; topical 5 mM GSK205,virtual elimination of inflammation; also recorded: markedly reduced inflammatory infiltrate
same,keratinocyte expression of CXCL5 in UVB-exposed footpad,mouse paw-pad skin; topical 5 mM GSK205,significant blocks; also recorded: attenuates
same,keratinocyte expression of IL-1β in UVB-exposed footpad,mouse paw-pad skin; topical 5 mM GSK205,failed to upregulate; also recorded: attenuates
same,keratinocyte expression of IL-6 in UVB-exposed footpad,mouse paw-pad skin; topical 5 mM GSK205,significant blocks; also recorded: attenuates
same,Edn1 mRNA expression in paw-pad skin after UVB,"mouse paw-pad skin; topical 5 mM GSK205, 2 hour and 24 hour time-points",unchanged; also recorded: complete lack of this regulation
same,UVB-induced increase in IL-1β secretion by 1° MK,IL-1β secretion by 1° MK,completely eliminated; also recorded: prevention of increase in IL-1β secretion

# Source: patent US11229628B2, “TRPA1 and TRPV4 inhibitors and methods of using the same for organ-specific inflammation and itch” (Duke University, priority 2015, dated 2022)
